Reference: US10294202B2, “Pyrrolidinones as herbicides” (FMC Corporation, priority 2013, dated 2019)

Legend:
barnyardgrass [1] = experiment: Test A pre-/postemergence herbicide test; type: in vivo, Echinochloa crus-galli
In short: (§1)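 Scoring was visual, relative to untreated controls, on a 0–100 scale after about 10 greenhouse days. Preemergence treatment used a directed soil spray over seeded loam/sand; postemergence treatment targeted one- to two-leaf plants of 2–10 cm.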

crabgrass, large = experiment: Test A pre-/postemergence herbicide test; type: in vivo, Digitaria sanguinalis
In short: as §1

giant foxtail = experiment: Test A pre-/postemergence herbicide test; type: in vivo, Setaria faberii
In short: as §1

morningglory = experiment: Test A pre-/postemergence herbicide test; type: in vivo, Ipomoea spp.
In short: as §1

pigweed = experiment: Test A pre-/postemergence herbicide test; type: in vivo, Amaranthus retroflexus; conditions: for Pigweed plant response rating: Preemergence, visual rating on 0 to 100 scale (0 no effect, 100 complete control)
In short: as §1

velvetleaf = experiment: Test A pre-/postemergence herbicide test; type: in vivo, Abutilon theophrasti
In short: as §1

wheat = experiment: Test A pre-/postemergence herbicide test; type: in vivo, Triticum aestivum
In short: as §1

corn = experiment: Test A pre-/postemergence herbicide test; type: in vivo, Zea mays
In short: as §1

rice = experiment: Test C flooded paddy test; type: in vivo, Oryza sativa; conditions: Flood
In short: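 Visual injury scored against controls after 13 to 15 days in the greenhouse, using 0 (no effect) to 100 (complete control). Test compounds went straight into paddy water held 3 cm above the soil surface on 2-leaf-stage plants, with that flood depth maintained for the whole test.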

sedge, umbrella = experiment: Test C flooded paddy test; type: in vivo, Cyperus difformis; conditions: Flood
Description: (§2) Plant species in the flooded paddy test consisted of rice (Oryza sativa), sedge, umbrella (small-flower umbrella sedge, Cyperus difformis), ducksalad (Heteranthera limosa), and barnyardgrass (Echinochloa crus-galli) grown to the 2-leaf stage for testing. At time of treatment, test pots were flooded to 3 cm above the soil surface, treated by application of test compounds directly to the paddy water, and then maintained at that water depth for the duration of the test. Treated plants and controls were maintained in a greenhouse for 13 to 15 days, after which time all species were compared to controls and visually evaluated. Plant response ratings, summarized in Table C, are based on a scale of 0 to 100 where 0 is no effect and 100 is complete control. A dash (-) response means no test result.

ducksalad = experiment: Test C flooded paddy test; type: in vivo, Heteranthera limosa; conditions: Flood
Description: as §2

barnyardgrass [2] = experiment: Test C flooded paddy test; type: in vivo, Echinochloa crus-galli; conditions: Flood
Description: as §2

[3] = Postemergence, 1000 g ai/ha, 0 to 100 scale (0 no effect, 100 complete control)
[4] = Preemergence, 1000 g ai/ha, visual rating on 0 to 100 scale (0 no effect, 100 complete control), approx. 10 days
[5] = 62 g ai/ha, scale of 0 to 100 where 0 is no effect and 100 is complete control, 13 to 15 days
[6] = Postemergence, 125 g ai/ha, 0 to 100 scale, 0 no effect, 100 complete control
[7] = Postemergence, 500 g ai/ha, 0 to 100 scale (0 no effect, 100 complete control)
[8] = Preemergence, 125 g ai/ha, visual rating on 0 to 100 scale (0 no effect, 100 complete control)
[9] = preemergence, 500 g ai/ha, 0 to 100 scale (0 no effect, 100 complete control)
[10] = preemergence, 500 g ai/ha, 0 to 100 scale
[11] = 31 g ai/ha, scale of 0 to 100 where 0 is no effect and 100 is complete control, 13 to 15 days
[12] = 125 g ai/ha, scale of 0 to 100 where 0 is no effect and 100 is complete control, 13 to 15 days

Structure (SMILES): O=C1NCC(c2ccc(F)c(F)c2)C1C(=O)Nc1ccc(F)cc1F (racemic) [Compound 23]
- Plant response rating, Barnyardgrass (barnyardgrass [1]; [3]): 90
- Plant response rating, Barnyardgrass (barnyardgrass [1]; [4]): 90
- Plant response rating, Crabgrass, Large (crabgrass, large; [3]): 80
- Plant response rating, Crabgrass, Large (crabgrass, large; [4]): 90
- Plant response rating, Foxtail, Giant (giant foxtail; [3]): 80
- Plant response rating, Foxtail, Giant (giant foxtail; [4]): 90
- Plant response rating, Morningglory (morningglory; [3]): 0
- Plant response rating, Morningglory (morningglory; [4]): 0
- Plant response rating, Pigweed (pigweed; [3]): 0
- Plant response rating, Velvetleaf (velvetleaf; [3]): 40
- Plant response rating, Velvetleaf (velvetleaf; [4]): 40
- Plant response rating, Wheat (wheat; [3]): 0
- Plant response rating, Wheat (wheat; [4]): 0
- Plant response rating, Corn (corn; [3]): 0
- Plant response rating, Corn (corn; [4]): 0
- Plant response rating, Rice (rice; [5]): 0
- Plant response rating, Rice (rice; 250 g ai/ha, scale 0 to 100): 0
- Plant response rating, Sedge, Umbrella (sedge, umbrella; [5]): 0
- Plant response rating, Sedge, Umbrella (sedge, umbrella; 250 g ai/ha, scale 0 to 100): 30
- Plant response rating, Ducksalad (ducksalad; [5]): 30
- Plant response rating, Ducksalad (ducksalad; 250 g ai/ha, scale 0 to 100): 100
- Plant response rating, Barnyardgrass (barnyardgrass [2]; [5]): 0
- Plant response rating, Barnyardgrass (barnyardgrass [2]; 250 g ai/ha, scale 0 to 100): 0

Structure (SMILES): CC1NC(=O)C(C(=O)Nc2ccccc2F)C1c1ccc(F)c(F)c1 (mixture of isomers) [Compound 7]
- Plant response rating, Barnyardgrass (barnyardgrass [1]; [6]): 20
- Plant response rating, Barnyardgrass (barnyardgrass [1]; [7]): 70
- Barnyardgrass plant response rating (barnyardgrass [1]; [8]): 20
- Plant response rating, Barnyardgrass (barnyardgrass [1]; [9]): 80
- Plant response rating, Crabgrass, Large (crabgrass, large; [6]): 30
- Plant response rating, Crabgrass, Large (crabgrass, large; [7]): 80
- Crabgrass, Large plant response rating (crabgrass, large; [8]): 80
- Plant response rating, Crabgrass, Large (crabgrass, large; [10]): 90
- Plant response rating, Foxtail, Giant (giant foxtail; [6]): 0
- Plant response rating, Foxtail, Giant (giant foxtail; [7]): 50
- Foxtail, Giant plant response rating (giant foxtail; [8]): 70
- Plant response rating, Foxtail, Giant (giant foxtail; [10]): 90
- Plant response rating, Morningglory (morningglory; [6]): 0
- Plant response rating, Morningglory (morningglory; [7]): 0
- Morningglory plant response rating (morningglory; [8]): 0
- Plant response rating, Morningglory (morningglory; [10]): 0
- Plant response rating, Pigweed (pigweed; [6]): 0
- Plant response rating, Pigweed (pigweed; [7]): 0
- Pigweed plant response rating (pigweed; 125 g ai/ha): 0
- Plant response rating, Pigweed (pigweed; [10]): 0
- Plant response rating, Velvetleaf (velvetleaf; [6]): 0
- Plant response rating, Velvetleaf (velvetleaf; [7]): 0
- Velvetleaf plant response rating (velvetleaf; [8]): 0
- Plant response rating, Velvetleaf (velvetleaf; [10]): 0
- Plant response rating, Wheat (wheat; [6]): 0
- Plant response rating, Wheat (wheat; [7]): 0
- Wheat plant response rating (wheat; [8]): 0
- Plant response rating, Wheat (wheat; [10]): 0
- Plant response rating, Corn (corn; [6]): 0
- Plant response rating, Corn (corn; [7]): 0
- Corn plant response rating (corn; [8]): 0
- Plant response rating, Corn (corn; [10]): 0
- Plant response rating, Rice (rice; [11]): 0
- Plant response rating, Rice (rice; [5]): 0
- Plant response rating, Rice (rice; [12]): 0
- Plant response rating, Rice (rice; 250 g ai/ha, scale 0 to 100): 0
- Plant response rating, Sedge, Umbrella (sedge, umbrella; [11]): 0
- Plant response rating, Sedge, Umbrella (sedge, umbrella; [5]): 0
- Plant response rating, Sedge, Umbrella (sedge, umbrella; [12]): 0
- Plant response rating, Sedge, Umbrella (sedge, umbrella; 250 g ai/ha, scale 0 to 100): 0
- Plant response rating, Ducksalad (ducksalad; [11]): 0
- Plant response rating, Ducksalad (ducksalad; [5]): 0
- Plant response rating, Ducksalad (ducksalad; [12]): 0
- Plant response rating, Ducksalad (ducksalad; 250 g ai/ha, scale 0 to 100): 0
- Plant response rating, Barnyardgrass (barnyardgrass [2]; [11]): 0
- Plant response rating, Barnyardgrass (barnyardgrass [2]; [5]): 0
- Plant response rating, Barnyardgrass (barnyardgrass [2]; [12]): 0
- Plant response rating, Barnyardgrass (barnyardgrass [2]; 250 g ai/ha, scale 0 to 100): 0

Structure (SMILES): O=C1NCC(c2ccc(F)c(F)c2)C1C(=O)Nc1cccc(F)c1F (racemic) [Compound 107]
- Plant response rating, Barnyardgrass (barnyardgrass [1]; [6]): 50
- Plant response rating, Barnyardgrass (barnyardgrass [1]; [7]): 80
- Barnyardgrass plant response rating (barnyardgrass [1]; [8]): 20
- Plant response rating, Barnyardgrass (barnyardgrass [1]; [9]): 70
- Plant response rating, Crabgrass, Large (crabgrass, large; [6]): 60
- Plant response rating, Crabgrass, Large (crabgrass, large; [7]): 70
- Crabgrass, Large plant response rating (crabgrass, large; [8]): 80
- Plant response rating, Crabgrass, Large (crabgrass, large; [10]): 90
- Plant response rating, Foxtail, Giant (giant foxtail; [6]): 10
- Plant response rating, Foxtail, Giant (giant foxtail; [7]): 70
- Foxtail, Giant plant response rating (giant foxtail; [8]): 70
- Plant response rating, Foxtail, Giant (giant foxtail; [10]): 80
- Plant response rating, Morningglory (morningglory; [6]): 0
- Plant response rating, Morningglory (morningglory; [7]): 40
- Morningglory plant response rating (morningglory; [8]): 0
- Plant response rating, Morningglory (morningglory; [10]): 0
- Plant response rating, Pigweed (pigweed; [6]): 0
- Plant response rating, Pigweed (pigweed; [7]): 30
- Pigweed plant response rating (pigweed; 125 g ai/ha): 0
- Plant response rating, Pigweed (pigweed; [10]): 20
- Plant response rating, Velvetleaf (velvetleaf; [6]): 0
- Plant response rating, Velvetleaf (velvetleaf; [7]): 20
- Velvetleaf plant response rating (velvetleaf; [8]): 0
- Plant response rating, Velvetleaf (velvetleaf; [10]): 0
- Plant response rating, Wheat (wheat; [6]): 0
- Plant response rating, Wheat (wheat; [7]): 0
- Wheat plant response rating (wheat; [8]): 0
- Plant response rating, Wheat (wheat; [10]): 0
- Plant response rating, Corn (corn; [6]): 0
- Plant response rating, Corn (corn; [7]): 0
- Corn plant response rating (corn; [8]): 0
- Plant response rating, Corn (corn; [10]): 0
- Plant response rating, Rice (rice; [12]): 0
- Plant response rating, Rice (rice; 250 g ai/ha, scale 0 to 100): 0
- Plant response rating, Rice (rice; 500 g ai/ha, scale 0 to 100): 0
- Plant response rating, Rice (rice; 1000 g ai/ha, scale 0 to 100): 0
- Plant response rating, Sedge, Umbrella (sedge, umbrella; [12]): 0
- Plant response rating, Sedge, Umbrella (sedge, umbrella; 250 g ai/ha, scale 0 to 100): 0
- Plant response rating, Sedge, Umbrella (sedge, umbrella; 500 g ai/ha, scale 0 to 100): 0
- Plant response rating, Sedge, Umbrella (sedge, umbrella; 1000 g ai/ha, scale 0 to 100): 0
- Plant response rating, Ducksalad (ducksalad; [12]): 0
- Plant response rating, Ducksalad (ducksalad; 250 g ai/ha, scale 0 to 100): 30
- Plant response rating, Ducksalad (ducksalad; 500 g ai/ha, scale 0 to 100): 60
- Plant response rating, Ducksalad (ducksalad; 1000 g ai/ha, scale 0 to 100): 70
- Plant response rating, Barnyardgrass (barnyardgrass [2]; [12]): 0
- Plant response rating, Barnyardgrass (barnyardgrass [2]; 250 g ai/ha, scale 0 to 100): 0
- Plant response rating, Barnyardgrass (barnyardgrass [2]; 500 g ai/ha, scale 0 to 100): 0
- Plant response rating, Barnyardgrass (barnyardgrass [2]; 1000 g ai/ha, scale 0 to 100): 20
